Measurements taken from patent publication US10703748B2, “Diazanaphthalen-3-yl carboxamides and preparation and use thereof” (Samumed, LLC, priority 2017, dated 2020).

Assays:
DYRK1A kinase = DYRK1A kinase (Homo sapiens, UniProt Q13627); assay: DYRK1A kinase activity (Ser/Thr 18 peptide Z-lyte FRET assay); type: biochemical; conditions: recombinant DYRK1A, 30 μM ATP, one hour at room temperature;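 further: kinase activity read as coumarin/fluorescein emission ratio after development step, with unphosphorylated and phosphorylated peptide forms setting 0% and 100% controls, values from dose-response curves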
GSK3β kinase = GSK3β kinase (Homo sapiens, UniProt P49841); assay: GSK3β kinase activity (Ser/Thr 09 peptide Z-lyte FRET assay); type: biochemical; conditions: recombinant kinase, 46 μM ATP, one hour at room temperature; read-out: EC50
Chain of GSK3β kinase (P49841 whole entry): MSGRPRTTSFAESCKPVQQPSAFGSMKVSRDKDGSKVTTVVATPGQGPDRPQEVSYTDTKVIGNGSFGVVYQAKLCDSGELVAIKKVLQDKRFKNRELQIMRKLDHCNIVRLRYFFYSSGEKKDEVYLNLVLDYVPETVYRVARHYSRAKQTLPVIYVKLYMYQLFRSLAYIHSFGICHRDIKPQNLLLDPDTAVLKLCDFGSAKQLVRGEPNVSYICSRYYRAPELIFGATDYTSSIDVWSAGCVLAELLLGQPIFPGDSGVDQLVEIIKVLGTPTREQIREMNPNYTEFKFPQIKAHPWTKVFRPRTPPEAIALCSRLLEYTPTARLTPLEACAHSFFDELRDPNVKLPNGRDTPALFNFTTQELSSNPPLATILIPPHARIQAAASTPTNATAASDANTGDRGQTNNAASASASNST

[1] = tested on: Tau phosphorylation at Ser396 (pSer396); assay: Tau phosphorylation at Ser396 (pSer396) in SH-SY5Y cells, ELISA / western blot; type: cell-based, human; conditions: Homo sapiens; SH-SY5Y cells, overnight (16-18 h); read-out: pSer396 Tau EC50;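 further: decrease in pSer396 Tau measured in lysates of treated cells by colorimetric ELISA or chemiluminescent western blot, same pSer396 antibody for both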
Procedure: Two days before treatment, cells were seeded onto 96 well plates at 5×10^4 cells/well.
The above synthesized compounds were screened using the cell assay procedure to assess decrease Tau phosphorylation at Ser396 (pSer396) described below.
Cells were lysed with RIPA buffer complemented with phosphatase and protease inhibitors then lysates were spun down at 12,000 g for 10 min to remove any cellular debris.

[2] = tested on: SW480 colon carcinoma cells; assay: Cell viability assay (CellTiter-Glo); conditions: Homo sapiens; for EC50: SW480, 96 h; for inhibition at 10 µM: SW480, read-out: percent inhibition at 10 μM
[3] = tested on: Wnt-responsive Sp5-Luc reporter in SW480 colon carcinoma cells; assay: Screening assay for Wnt activity (Sp5-Luc reporter gene assay); conditions: Homo sapiens; for EC50: SW480
IL-6 = IL-6 inhibition in LPS-stimulated human peripheral blood mononuclear cells (HTRF); conditions: Homo sapiens, PBMC; for EC50: 22 h; for inhibition at 10 µM: read-out: percentage in parentheses after EC50 >10
[4] = tested on: α-smooth muscle actin (aSMA) positive LL29 cells; assay: Inhibition of the fibrotic process: αSMA staining in TGF-β1 treated LL29 fibroblasts from IPF patients; conditions: Homo sapiens, Fibroblast; for EC50: 96 h; for inhibition at 10 µM: read-out: percentage in parentheses after EC50 >10

Compound	EC50 (DYRK1A kinase) [nM]	EC50 (GSK3β kinase) [nM]	EC50 [1] [nM]	EC50 [2] [nM]	inhibition at 10 µM [2] [%]	EC50 [3] [nM]	EC50 (IL-6) [nM]	inhibition at 10 µM (IL-6) [%]	EC50 [4] [nM]	inhibition at 10 µM [4] [%]	inhibition at 10 µM ([3]; SW480, read-out: percent inhibition at 10 μM) [%]
COC1CCN(CC(=O)Nc2ncc3ccc(-c4cn(C)nn4)cc3n2)CC1 [Compound 1264, 2-(4-Methoxypiperidin-1-yl)-N-(7-(1-methyl-1H-1,2,3-triazol-4-yl)quinazolin-2-yl)acetamide]	43	17	902	> 10000	27.8	9710	> 10000	7.9	> 10000	5.7	
CC(C)OCCC(=O)Nc1ncc2ccc(-c3cncn3C)cc2n1 [Compound 1322, 3-Isopropoxy-N-(7-(1-methyl-1H-imidazol-5-yl)quinazolin-2-yl)propanamide]	52	94	168	> 10000	22.2	1170	> 10000	5.9	2000		
O=C(Nc1ncc2ccc(-c3cncc(NCC4(F)CNC4)n3)cc2n1)C1CC1 [Compound 1777, N-(7-(6-(((3-Fluoroazetidin-3-yl)methyl)amino)pyrazin-2-yl)quinazolin-2-yl)cyclopropanecarboxamide]	5	98	10000	> 10000	27.6	> 10000	> 10000	2.4	> 10000	41.1	35.4
O=C(Nc1ncc2ccc(-c3cncc(N[C@H]4CCNC[C@@H]4F)n3)cc2n1)C1CC1 [Compound 1785, N-(7-(6-(((3S,4S)-3-Fluoropiperidin-4-yl)amino)pyrazin-2-yl)quinazolin-2-yl)cyclopropanecarboxamide]	7	135	5660	> 10000	34.3	4270	> 10000	8.9	4000		
CC(C)CN1CCC(CC(=O)Nc2cc3cc(-c4cnn(C)c4)ncc3cn2)C1 (stereo not shown) [Compound 3749, 2-(1-Isobutylpyrrolidin-3-yl)-N-(6-(1-methyl-1H-pyrazol-4-yl)-2,7-naphthyridin-3-yl)acetamide]	10	6	87	3610		92	8800		167		
Cn1cc(-c2cc3cc(NC(=O)c4ccnc(OC5CCNCC5)c4)ncc3cn2)cn1 [Compound 3780, N-(6-(1-Methyl-1H-pyrazol-4-yl)-2,7-naphthyridin-3-yl)-2-(piperidin-4-yloxy)isonicotinamide]	16	275	> 10000	2260		1530	> 10000	6.7	4760		
CCN(CC)CC(=O)Nc1cc2cc(-c3cnn(C)c3CN3CCCCC3)ncc2cn1 [Compound 3910, 2-(Diethylamino)-N-(6-(1-methyl-5-(piperidin-1-ylmethyl)-1H-pyrazol-4-yl)-2,7-naphthyridin-3-yl)acetamide]	59	115	989	3540		1240	> 10000	4.2	1070		
Cn1ncc(-c2cc3cc(NC(=O)c4ccnc(N5CCOCC5)c4)ncc3cn2)c1CN1CCOCC1 [Compound 3941, N-(6-(1-methyl-5-(morpholinomethyl)-1H-pyrazol-4-yl)-2,7-naphthyridin-3-yl)-2-morpholinoisonicotinamide]	6	79	571	2380		1340	> 10000	5.5	1190		
